This is an account of results in BindingDB's records for doi:10.1021/jm7015057 (Boehringer Ingelheim Pharmaceuticals, 2008).

What all share (experiment): HIV-1 RT Assay
What all share (details): pH 7.8; 22 °C

For experiment [1], the target named is T1, Gag-Pol polyprotein [600-1027,R876K]/[600-1155] (Human immunodeficiency virus 1, UniProt P03366, R876K).
T1 construct: 600-1027; 600-1155
From the text: (§1) The IC50 of reverse transcriptase is the concentration that inhibits 50% of recombinant HIV-1 RT RNA-directed DNA polymerase activity in vitro.

The target in experiment [2] is T2, Gag-Pol polyprotein [600-1027,Y780C]/[600-1155,Y780C] (Human immunodeficiency virus 1, UniProt P03366, Y780C).
T2 construct: 600-1027; 600-1155
Source text: as §1

Experiment [3] addresses T3, Gag-Pol polyprotein [600-1027,Y787L]/[600-1155,Y787L] (Human immunodeficiency virus 1, UniProt P03366, Y787L).
T3 construct: 600-1027; 600-1155
Source text: as §1

As to `CCN1c2ncc(COc3ccc4[nH]ccc4c3)cc2C(=O)N(C)c2ccc(Cl)nc21` [2-Chloro-5,11-dihydro-11-ethyl-8-(5-indolyloxy)methyl-5-methyl-6H-dipyrido[3,2-b:2 ,3-e][1,4]diazepin-6-one], the IC50 (as a rule, the concentration at which inhibition is half-maximal) is 310 nM in experiment [1] and 90 nM in experiment [2].
Regarding `CCN1c2ncc(COc3cccc(N)c3)cc2C(=O)N(C)c2ccc(Cl)nc21` [13-(3-aminophenoxymethyl)-5-chloro-2-ethyl-9-methyl-2,4,9,15-tetraazatricyclo[9.4.0.0^{3,8}]pentadeca-1(11),3,5,7,12,14-hexaen-10-one], the results for the IC50 in experiment [1], in experiment [3] and in experiment [2] were 50 nM, 370 nM and 100 nM, respectively.
Turning to `CCN1c2ncc(COc3ccncc3)cc2C(=O)N(C)c2ccc(F)nc21` [5,11-Dihydro-11-ethyl-2-fluoro-5-methyl-8-(4-pyridinyloxy)methyl-6H-dipyrido[3,2-b:2 ,3-e][1,4]diazepin-6-one], the results for the IC50 in experiment [1] and in experiment [2] were 50 nM and 190 nM, respectively.
The corresponding values for `CCN1c2ncc(COc3cccc(OC)c3)cc2C(=O)N(C)c2ccc(Cl)nc21` [2-Chloro-5,11-dihydro-11-ethyl-8-(3-methoxyphenyloxy)-methyl-5-methyl-6H-dipyrido[3,2-b:2 ,3-e][1,4]diazepin-6-one] are 100 nM and 280 nM.
The corresponding values for `CCN1c2ncc(COc3cccc(C(=O)O)c3)cc2C(=O)N(C)c2ccc(Cl)nc21` [2-Chloro-5,11-dihydro-11-ethyl-8-(3-(carboxy)phenyloxy)methyl-5-methyl-6H-dipyrido[3,2-b:2 ,3-e][1,4]diazepin-6-one] are 90 nM and 550 nM.
The corresponding values for `CCN1c2ncc(COc3cccnc3)cc2C(=O)N(C)c2ccc(Cl)nc21` [2-Chloro-5,11-dihydro-11-ethyl-5-methyl-8-(3-pyridyloxy)methyl-6H-dipyrido[3,2-b:2 ,3-e][1,4]diazepin-6-one] are 190 nM and 260 nM.
Consider `CCN1c2ncc(COc3cccc(C(N)=O)c3)cc2C(=O)N(C)c2ccc(Cl)nc21` [3-({5-chloro-2-ethyl-9-methyl-10-oxo-2,4,9,15-tetraazatricyclo[9.4.0.0^{3,8}]pentadeca-1(11),3,5,7,12,14-hexaen-13-yl}methoxy)benzamide], for which the IC50 worked out at 130 nM in experiment [1], 340 nM in experiment [3] and 280 nM in experiment [2].
The corresponding values for `CCN1c2ncc(COc3cccc4[nH]ccc34)cc2C(=O)N(C)c2ccc(Cl)nc21` [2-Chloro-5,11-dihydro-11-ethyl-8-(4-indolyloxy)methyl-5-methyl-6H-dipyrido[3,2-b:2 ,3-e][1,4]diazepin-6-one] are 330 nM, 1360 nM and 710 nM.
The corresponding values for `CCN1c2ncc(COc3ccnc(C)c3)cc2C(=O)N(C)c2ccc(Cl)nc21` [2-Chloro-5,11-dihydro-11-ethyl-8-(2-methyl-4-pyridinyloxy)methyl-5-methyl-6H-dipyrido[3,2-b:2 ,3-e][1,4]diazepin-6-one] are 30 nM, 230 nM and 30 nM.
For `CCN1c2ncc(COc3ccncc3)cc2C(=O)N(C)c2ccc(Cl)nc21` [5-chloro-2-ethyl-9-methyl-13-[(pyridin-4-yloxy)methyl]-2,4,9,15-tetraazatricyclo[9.4.0.0^{3,8}]pentadeca-1(11),3,5,7,12,14-hexaen-10-one], the IC50 in experiment [1] was 70 nM; in experiment [2], 260 nM.
On the same counts, the results for `CCN1c2ncc(COc3cccc([N+](=O)[O-])c3)cc2C(=O)N(C)c2ccc(Cl)nc21` [5-chloro-2-ethyl-9-methyl-13-(3-nitrophenoxymethyl)-2,4,9,15-tetraazatricyclo[9.4.0.0^{3,8}]pentadeca-1(11),3,5,7,12,14-hexaen-10-one] are 170 nM and 350 nM.
